Numbers after ± are expanded uncertainties.
Conditions: Crystal; visual observation

Normal melting temperature: 220.20 ± 1.4 °C
Structure (SMILES): F[P-](F)(F)(F)(F)F.F[P-](F)(F)(F)(F)F.c1cc[n+](CC[n+]2ccccc2)cc1 [1,1'-(ethane-1,2-diyl)bis(pyridin-1-ium) hexafluorophosphate]

— the NIST ThermoML archive (doi:10.1021/je900524t)
